This assay deals with Plasmodium berghei. Nature of the assay: Luciferase/luciferin-expressing antifolate-resistant parasites were used to infect a culture of HepG2 cells that were pre-incubated with compounds. Infected hepatocytes emit light due to the luciferase reaction. Assay results are presented as the percent inhibition of light emission compared to control. […]. Type of assay: functional. To be noted: sporozoite; for IC50: read-out: LUCIFERASE INFECTION ASSAY - IC50; for IC90: read-out: LUCIFERASE INFECTION ASSAY - IC90.

For `COCCCNC(=O)Cc1ccc(S(=O)(=O)N2CCOCC2)s1`, the IC50 was > 10 µM and the IC90 was > 10 µM.

`Cc1ccc(N2C(=O)N(CC(=O)N3CCc4ccccc43)C(=O)C2C)cc1` (configuration not stated): the IC50 is > 2 µM and the IC90 is > 2 µM.

For `Cc1nc(-c2ccc3c(c2)CC(=O)N3C)cs1`, the IC50 was > 10 µM and the IC90 is > 10 µM.

On to `O=[N+]([O-])c1ccccc1N1CCN(Cc2nc3ccccc3s2)CC1`, for which the IC50 is > 10 µM and the 90% effect concentration (IC90) was > 10 µM.

With `CC1CCN(Cc2ccc(CNC(=O)CCn3cncn3)cc2)CC1`, the 50% inhibitory concentration (IC50) is > 10 µM and the IC90 is > 10 µM.

In the case of `COc1ccccc1NC(=O)Cc1noc(CNc2ccc(F)cc2C)n1`, the IC50 is > 10 µM and the IC90 is > 10 µM.

Take `Cc1ccc(Sc2ccc(NC(=O)C3CC(=O)N(C4CC4)C3)cc2)c(C)c1` (configuration not stated): the IC50 was > 10 µM and the IC90 is > 10 µM.

As to `O=C(NCC1COc2ccccc2O1)c1cc2ccccc2cc1O` (configuration not stated), the IC50 was > 10 µM and the IC90 is > 10 µM.

In the case of `Cc1nc(SCC(=O)N2CCC(c3nc4ccccc4o3)CC2)c2c(C)c(C)sc2n1`, the IC50 was > 10 µM and the 90% effect concentration (IC90) is > 10 µM.

Take `CN(C(=O)CCN1C(=O)CCC1=O)c1ccccc1`: the IC50 was > 10 µM and the IC90 is > 10 µM.

On to `CCCc1noc(CCC(=O)Nc2nc3cc4c(cc3s2)OCCO4)n1`, for which the half-maximal inhibitory concentration (IC50) was > 10 µM and the IC90 is > 10 µM.

Regarding `O=C(Nc1cccnc1-n1cccn1)c1csc(-c2ccc(Cl)cc2)n1`, the IC50 is > 2 µM and the IC90 is > 2 µM.

On to `CC(=O)c1ccc(N2CCN(c3nc4ccccc4s3)CC2)cc1`, for which the IC50 was determined as 3.62 µM and the IC90 is > 10 µM.

In the case of `CC(C)C(=O)NC1CCCC(C)C1C` (configuration not stated), the IC50 is > 2 µM and the IC90 is > 2 µM.

In the case of `Cc1cc(CSc2nnc(CN3CCCCC3)n2-c2ccc(F)cc2)on1`, the IC50 is > 10 µM and the IC90 was > 10 µM.

As to `COc1ccccc1CNC(=O)CSc1nnc(-c2ccccc2)c2ccccc12`, the IC50 is > 10 µM and the IC90 is > 10 µM.

As to `COC(=O)c1c(CSc2nnnn2C)nc2ccccc2c1-c1ccccc1`, the IC50 is > 10 µM and the concentration for an effect of 90% (IC90) is > 10 µM.

For `Cc1cccc(N2CCN(CC(=O)c3ccc[nH]3)CC2)c1C`, the IC50 is > 10 µM and the IC90 is > 10 µM.

As for `N#Cc1ccc(F)c(CN2CCN(Cc3nc(-c4ccc(Cl)cc4)no3)CC2)c1`, the IC50 is > 10 µM and the IC90 is > 10 µM.

For the molecule `Cc1c(C(=O)NCCc2ccc3c(c2)OCCO3)cnn1-c1ccc(Cl)cc1`, the IC50 is > 2 µM and the IC90 was > 2 µM.

Take `CCCc1cc(=O)nc(SCC(=O)NC(=O)c2ccc(C(C)(C)C)cc2)[nH]1`: the IC50 was > 10 µM and the IC90 was > 10 µM.

With `CCCOc1ccccc1NC(=O)c1cnc2c(c1)c(=O)[nH]c(=O)n2C`, the IC50 was > 10 µM and the IC90 was > 10 µM.

With `O=C(c1ccc(O)cc1)C1CCN(C(=O)c2cccc(N3CCCC3=O)c2)CC1`, the IC50 is > 10 µM and the IC90 is > 10 µM.

With `CC(C)c1cccc(N2CC(C(=O)N3CCC(C(N)=O)CC3)CC2=O)c1` (configuration not stated), the IC50 is > 10 µM and the IC90 was > 10 µM.

For `CCOc1ccc(S(=O)(=O)N2CCCCC2)cc1NC(=O)C1CC=CCC1` (configuration not stated), the IC50 is > 10 µM and the IC90 is > 10 µM.

Turning to `Cn1c(Cc2ccccc2)ns/c1=N\C(=Nc1ccccc1)c1ccccc1`, the IC50 is > 10 µM and the IC90 is > 10 µM.

As for `Cc1ccc(Cn2ncc3c(C(=O)Nc4ccc(C)c(F)c4)cc(C)nc32)cc1`, the IC50 was > 10 µM and the IC90 was > 10 µM.

In the case of `Cc1csc(=O)n1CC(=O)Nc1ccccc1C(=O)NCc1ccco1`, the IC50 was > 10 µM and the IC90 is > 10 µM.

In the case of `O=C(Cc1noc2ccccc12)Nc1ccc(C(=O)N2CCCC2)cc1`, the concentration for half-maximal inhibition (IC50) is > 10 µM and the 90% effect concentration (IC90) was > 10 µM.

In the case of `CN(Cc1ccccc1N1CCOCC1)C(=O)/C=C/c1c(Cl)nc2ccccn12`, the IC50 is > 10 µM and the IC90 was > 10 µM.

In the case of `CC(NC(=O)c1cn(C)c2ccccc12)c1ccccn1` (configuration not stated), the IC50 is > 2 µM and the IC90 was > 2 µM.

On to `COc1ccccc1-c1nc(COC(=O)c2cccnc2SC)cs1`, for which the half-maximal inhibitory concentration (IC50) is > 10 µM and the IC90 was > 10 µM.

Consider `CCCCn1nnnc1COC(=O)c1ccccc1Sc1ccccc1C#N`, for which the IC50 was > 10 µM and the IC90 is > 10 µM.

As to `Cc1cc(C(=O)Cn2cnc3ccc([N+](=O)[O-])cc3c2=O)c(C)n1CC1COc2ccccc2O1` (configuration not stated), the IC50 was > 10 µM and the IC90 was > 10 µM.

Take `O=C(NC1CC1)c1ccc(CN(C2CC2)S(=O)(=O)c2ccccc2F)cc1`: the IC50 worked out at 1.29 µM and the IC90 stood at 1.51 µM.

On to `O=c1nc(/C=C/c2cccc3cccnc23)[nH]c2sc3c(c12)CCCCC3`, for which the IC50 is > 10 µM and the IC90 is > 10 µM.

For the molecule `Cc1occc1C(=O)N1CCN(C(=O)c2ccc3ccccc3c2)CC1`, the IC50 is > 2 µM and the IC90 was > 2 µM.

Regarding `CCOc1cc(C(=O)NC2CCCCCC2)ccc1OCc1cccnc1`, the IC50 was > 2 µM and the IC90 is > 2 µM.

For `Cc1nc2ccccc2nc1SCC(=O)Nc1ccccc1N1CCOCC1`, the concentration for half-maximal inhibition (IC50) is > 10 µM and the concentration for an effect of 90% (IC90) was > 10 µM.

In the case of `Cc1nc2ccccc2n1CCNC(=O)N1CCN(c2ccc(C(F)(F)F)cc2[N+](=O)[O-])CC1`, the half-maximal inhibitory concentration (IC50) was > 10 µM and the IC90 is > 10 µM.

As for `CN(CCOc1ccccc1F)C(=O)c1cc(S(=O)(=O)N2CCCC2)c[nH]1`, the half-inhibitory concentration (IC50) was > 2 µM and the 90% effect concentration (IC90) was > 2 µM.

Turning to `O=C(NCCOc1ccccc1F)NCC1CC1`, the IC50 was > 10 µM and the concentration for an effect of 90% (IC90) was > 10 µM.

With `Cn1cccc1C(=O)NC(=O)COC(=O)CCNC(=O)c1ccc([N+](=O)[O-])cc1`, the IC50 is > 10 µM and the IC90 is > 10 µM.

For the molecule `O=C(CCc1ccc(-c2ccccc2)o1)Nc1nc(CN2CCCCC2)cs1`, the concentration for half-maximal inhibition (IC50) was > 10 µM and the IC90 was > 10 µM.

On to `CN(C)C(CNC(=O)c1cc(C2CC2)nn1-c1ccccc1)Cc1ccccc1` (configuration not stated), for which the half-maximal inhibitory concentration (IC50) is > 10 µM and the IC90 is > 10 µM.

Take `Cc1ncsc1CCOC(=O)c1cc(Cl)c2c(c1)OCCO2`: the IC50 is > 10 µM and the IC90 was > 10 µM.

Regarding `Cc1cc(C)cc(C(=O)/C=c2\[nH]c(=O)/c(=C\c3cccs3)s2)c1`, the IC50 is > 10 µM and the IC90 was > 10 µM.

For the molecule `COc1cccc2c1N(S(=O)(=O)c1ccccc1C(F)(F)F)CCC2`, the IC50 was > 2 µM and the IC90 is > 2 µM.

For `COc1ccc(CNC(=O)NC2CCCCCCC2)cn1`, the IC50 was > 10 µM and the IC90 was > 10 µM.

With `Cc1ccccc1Nc1nc(N)nc(CSc2nc(=O)c3c(-c4cccs4)csc3[nH]2)n1`, the IC50 is > 10 µM and the IC90 is > 10 µM.

`Cc1ccc(-c2nn(CN(C)CC(=O)NC(C)C)c(=S)n2C)cc1`: the IC50 was > 10 µM and the IC90 is > 10 µM.

In the case of `Cc1ccc(-c2nnc(SCC(=O)N3c4ccccc4OCC3c3ccccc3)[nH]2)cc1` (configuration not stated), the IC50 was > 10 µM and the IC90 was > 10 µM.

For the molecule `CNC(=O)c1ccc(C)c(C)c1`, the half-inhibitory concentration (IC50) was > 10 µM and the IC90 was > 10 µM.

Take `CCN(Cc1ccccc1)C(=O)c1cc(-c2ccccc2)nc2c1cnn2CC`: the half-inhibitory concentration (IC50) is > 10 µM and the IC90 is > 10 µM.

Take `Cc1ccc(COC(=O)c2cccc3c(=O)c(C)c(-c4ccccc4)oc23)cc1`: the IC50 was > 10 µM and the IC90 is > 10 µM.

In the case of `Cc1cc(N2CCN(C(=O)C(C)Oc3ccc(F)cc3)CC2)nc(C(C)C)n1` (configuration not stated), the IC50 is > 10 µM and the IC90 is > 10 µM.

As for `O=C(CNc1ccc(Oc2ccc(Br)cc2)cc1)NC1CC1`, the IC50 was > 10 µM and the IC90 is > 10 µM.

As to `COc1ccc(-c2csc(CC(=O)NCc3ccccc3)n2)c(OC)c1`, the IC50 was > 10 µM and the IC90 was > 10 µM.

For the molecule `CCC(C(=O)Nc1nc(C)c(Cc2ccc3c(c2)OCO3)s1)c1ccccc1` (configuration not stated), the IC50 is > 10 µM and the IC90 is > 10 µM.

With `CC(NC(=O)c1cccc(Nc2ncccn2)c1)c1cccc(C(F)(F)F)c1` (configuration not stated), the IC50 is 0.729 µM and the IC90 was 6.34 µM.

As for `COc1cccc(-c2noc(COC(=O)c3ccc(C)s3)n2)c1`, the IC50 is > 10 µM and the IC90 is > 10 µM.

Turning to `COC(=O)c1ccc(NC(=O)Cc2ccc(NC(=O)OC(C)(C)C)cc2)c(C)c1`, the IC50 was > 10 µM and the IC90 is > 10 µM.

Turning to `O=C(NCc1ccccc1CN1CCOCC1)c1cccc(C(F)(F)F)c1`, the 50% inhibitory concentration (IC50) is > 10 µM and the concentration for an effect of 90% (IC90) is > 10 µM.

As to `Cc1ccc(C(=O)Nc2cccc(CNC(C)c3ccc(F)cc3F)c2)cc1` (configuration not stated), the IC50 is > 10 µM and the IC90 is > 10 µM.

Take `COc1ccccc1NS(=O)(=O)c1ccc2nc(-c3ccncc3)[nH]c2c1`: the half-inhibitory concentration (IC50) was > 10 µM and the IC90 is > 10 µM.

On to `Cc1ccc(-n2c(C)cc(C(=O)CSc3n[nH]c(=O)n3C3CC3)c2C)cc1C`, for which the IC50 was > 10 µM and the IC90 is > 10 µM.

Turning to `CN(Cc1ccc(Br)s1)c1ncccc1C(N)=O`, the IC50 was > 2 µM and the IC90 is > 2 µM.

As for `CC(=O)NCCNC(=O)c1ccc(OCC2CCCO2)cc1` (configuration not stated), the IC50 is > 2 µM and the IC90 was > 2 µM.

For `CCCNC(=O)COc1ccc(Nc2ccccc2)cc1`, the IC50 was > 10 µM and the IC90 is > 10 µM.

`Cc1nn(-c2ccccc2)c(C)c1CC(=O)Nc1ccc2c(c1)OC(F)(F)O2`: the IC50 is > 10 µM and the IC90 is > 10 µM.

`CC(=O)Nc1ccc(S(=O)(=O)N(C)CC(=O)NCCC(=O)N2CCCC2)cc1`: the IC50 is > 10 µM and the 90% effect concentration (IC90) was > 10 µM.
